In ChEMBL document CHEMBL1201862, “PubChem BioAssay data set” (2004):
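The compound was tested at five concentrations on cells cultured in 96-well plates, with a 48-hour exposure period. Abbreviation: GI50, concentration required for 50% inhibition of growth.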 Activity calls are given as the source filed them. No stated cut-off is given here; in the data, active = GI50 up to about 1.1 µM and inactive = higher.

How the values were obtained:
Test in all cases: NCI anticancer screen, dose series, 48 h
SNB-75 = test system: SNB-75
SF-295 = test system: SF-295
NCI-H226 = test system: NCI-H226
LOX IMVI = test system: LOX IMVI
LXFL 529 = test system: LXFL 529
786-0 = test system: 786-0
DLD-1 = test system: DLD-1
CAKI-1 = test system: CAKI-1
CCRF-CEM = test system: CCRF-CEM
SK-MEL-28 = test system: SK-MEL-28
SNB-19 = test system: SNB-19
UACC-62 = test system: UACC-62
RXF 393 = test system: RXF 393
M19-MEL = test system: M19-MEL
EKVX = test system: EKVX
DMS-114 = test system: DMS-114
K562 = test system: K562
SW-620 = test system: SW-620
COLO 205 = test system: COLO 205
OVCAR-8 = test system: OVCAR-8
HL-60 = test system: HL-60
SK-OV-3 = test system: SK-OV-3
NCI-H460 = test system: NCI-H460
NCI-H522 = test system: NCI-H522
MOLT-4 = test system: MOLT-4
OVCAR-5 = test system: OVCAR-5
NCI-H23 = test system: NCI-H23
Malme-3M = test system: Malme-3M
HCT-116 = test system: HCT-116
TK-10 = test system: TK-10
HOP-62 = test system: HOP-62
KM12 = test system: KM12
HCC 2998 = test system: HCC 2998
UO-31 = test system: UO-31
OVCAR-4 = test system: OVCAR-4
OVCAR-3 = test system: OVCAR-3
SNB-78 = test system: SNB-78
HCT-15 = test system: HCT-15
RXF 631 = test system: RXF 631
UACC-257 = test system: UACC-257
SF-268 = test system: SF-268
A498 = test system: A498
SK-MEL-5 = test system: SK-MEL-5
ACHN = test system: ACHN
DMS-273 = test system: DMS-273
HOP-92 = test system: HOP-92
HOP-18 = test system: HOP-18
HT-29 = test system: HT-29
SK-MEL-2 = test system: SK-MEL-2
M14 = test system: M14
A549 = test system: A549
RPMI-8226 = test system: RPMI-8226
KM-20L2 = test system: KM-20L2
SF-539 = test system: SF-539
IGROV-1 = test system: IGROV-1
U-251 = test system: U-251
SN12C = test system: SN12C
XF498 = test system: XF498
SR = test system: SR

With `COc1cc2c(c(C)c1O)[C@H]1COc3ccccc3[C@H]1O2` the GI50 (SNB-75) was 3.95 µM (inactive), the GI50 (SF-295) was 27 µM (inactive) and the GI50 (NCI-H226) was 6.25 µM (inactive). For the same compound, the GI50 (LOX IMVI) was 3.65 µM (inactive), the GI50 (LXFL 529) was 14.6 µM (inactive) and the GI50 (786-0) was 16.6 µM (inactive). For the same compound, the GI50 (DLD-1) was 24.4 µM (inactive), the GI50 (CAKI-1) was 9.04 µM (inactive) and the GI50 (CCRF-CEM) was 13.6 µM (inactive). The GI50 (SK-MEL-28) was 12.6 µM (inactive), the GI50 (SNB-19) was 1.49 µM (inactive) and the GI50 (UACC-62) was 7.89 µM (inactive). The GI50 (RXF 393) was 9.06 µM (inactive), the GI50 (M19-MEL) was 12.5 µM (inactive) and the GI50 (EKVX) was 12.2 µM (inactive). For the same compound, the GI50 (DMS-114) was 5.12 µM (inactive), the GI50 (K562) was 4.29 µM (inactive) and the GI50 (SW-620) was 5.27 µM (inactive). The GI50 (COLO 205) was 18.7 µM (inactive), the GI50 (OVCAR-8) was 20.9 µM (inactive) and the GI50 (HL-60) was 2.94 µM (inactive). The GI50 (SK-OV-3) was 31.8 µM (inactive), the GI50 (NCI-H460) was 11.3 µM (inactive) and the GI50 (NCI-H522) was 3.27 µM (inactive). For the same compound, the GI50 (MOLT-4) was 14.7 µM (inactive), the GI50 (OVCAR-5) was 55.3 µM (inactive) and the GI50 (NCI-H23) was 13.2 µM (inactive). The GI50 (Malme-3M) was 22.1 µM (inactive), the GI50 (HCT-116) was 5.71 µM (inactive) and the GI50 (TK-10) was 31.5 µM (inactive). The GI50 (HOP-62) was 6.59 µM (inactive), the GI50 (KM12) was 24.7 µM (inactive) and the GI50 (HCC 2998) was > 10 µM (inactive). The GI50 (UO-31) was 8.51 µM (inactive), the GI50 (OVCAR-4) was 17.5 µM (inactive) and the GI50 (OVCAR-3) was 21.9 µM (inactive). For the same compound, the GI50 (SNB-78) was 23.4 µM (inactive), the GI50 (HCT-15) was 4.27 µM and the GI50 (RXF 631) was 11.6 µM (inactive). The GI50 (UACC-257) was 12.4 µM (inactive), the GI50 (SF-268) was 15.2 µM (inactive) and the GI50 (A498) was 24.9 µM (inactive). For the same compound, the GI50 (SK-MEL-5) was 10.8 µM (inactive), the GI50 (ACHN) was 21.2 µM (inactive) and the GI50 (DMS-273) was 5.81 µM (inactive). The GI50 (HOP-92) was 19.5 µM (inactive), the GI50 (HOP-18) was 1.37 µM (inactive) and the GI50 (HT-29) was 17.7 µM (inactive). The GI50 (SK-MEL-2) was 3.16 µM (inactive), the GI50 (M14) was 8.15 µM (inactive) and the GI50 (A549) was 13.2 µM (inactive). The GI50 (RPMI-8226) was 13.8 µM (inactive), the GI50 (KM-20L2) was 18.2 µM (inactive) and the GI50 (SF-539) was 8.41 µM (inactive). The GI50 (IGROV-1) was 14.5 µM (inactive) and the GI50 (U-251) was > 10 µM (inactive).
For `CCCCCCc1cc(C(=O)Nc2ccc(Cl)cc2)nc(S)n1`, the GI50 (SN12C) was > 100 µM (inactive), the GI50 (NCI-H226) was > 10 µM (inactive) and the GI50 (LXFL 529) was > 100 µM (inactive). The GI50 (DLD-1) was > 10 µM (inactive), the GI50 (CAKI-1) was > 100 µM (inactive) and the GI50 (XF498) was > 10 µM (inactive). The GI50 (CCRF-CEM) was > 100 µM (inactive), the GI50 (RXF 393) was > 10 µM (inactive) and the GI50 (EKVX) was > 100 µM (inactive). The GI50 (K562) was > 100 µM (inactive), the GI50 (SW-620) was > 100 µM (inactive) and the GI50 (HL-60) was > 100 µM (inactive). The GI50 (SK-OV-3) was > 100 µM (inactive), the GI50 (NCI-H460) was > 10 µM (inactive) and the GI50 (NCI-H522) was > 100 µM (inactive). The GI50 (MOLT-4) was > 100 µM (inactive), the GI50 (OVCAR-5) was 31.1 µM (inactive) and the GI50 (NCI-H23) was > 100 µM (inactive). The GI50 (HOP-62) was > 100 µM (inactive), the GI50 (KM12) was > 100 µM (inactive) and the GI50 (UO-31) was > 100 µM (inactive). The GI50 (OVCAR-4) was > 100 µM (inactive), the GI50 (RXF 631) was > 100 µM (inactive) and the GI50 (UACC-257) was > 100 µM (inactive). For the same compound, the GI50 (SK-MEL-5) was > 100 µM (inactive), the GI50 (HOP-92) was > 100 µM (inactive) and the GI50 (SR) was > 100 µM (inactive). The GI50 (SK-MEL-2) was > 100 µM (inactive), the GI50 (M14) was > 100 µM (inactive) and the GI50 (A549) was > 100 µM (inactive). For the same compound, the GI50 (RPMI-8226) was > 100 µM (inactive), the GI50 (SF-539) was > 100 µM (inactive) and the GI50 (IGROV-1) was > 100 µM (inactive). The GI50 (U-251) was > 100 µM (inactive).
